A short description of the data set: Fluorescence excitation and emission wavelengths. Format: physicochemical. Also on record: unit not given here. As to conditions: deoxyriboside compound.

For the substance “2′-Deoxphenothiazine [phenothiazine deoxyriboside]”, the “emission wavelength (EM)” value is listed as 492.

Source of the values: patent US6967079B2, “Pyrimidine derivatives for labeled binding partners” (ISIS Pharmaceuticals, Inc., priority 1993, dated 2005).
